Where two headings read alike, the source gives them in different places.
What was measured:
CDK5/p35 = CDK5/p35 (Homo sapiens, UniProt Q00535); test: Z'-LYTE SelectScreen biochemical kinase assay CDK5/p35
Excerpt: (§1) Thermo Fisher Scientific SelectScreen™ Biochemical Kinase Profiling Service Z′-LYTE™ Screening Protocol and Assay Conditions Assay Theory
(§2) The […] biochemical assay employs a fluorescence-based, coupled-enzyme format and is based on the differential sensitivity of phosphorylated and non-phosphorylated peptides to proteolytic cleavage. The peptide substrate is labeled with two fluorophores—one at each end—that make up a FRET pair. In the primary reaction, the kinase transfers the gamma-phosphate of ATP to a single tyrosine, serine or threonine residue in a synthetic FRET-peptide. In the secondary reaction, a site-specific protease recognizes and cleaves non-phosphorylated FRET-peptides. Phosphorylation of FRET-peptides suppresses cleavage by the Development Reagent. Cleavage disrupts FRET between the donor (i.e., coumarin) and acceptor (i.e., fluorescein) fluorophores on the FRET-peptide, whereas uncleaved, phosphorylated FRET-peptides maintain FRET. A ratiometric method, which calculates the ratio (Emission Ratio=Coumarin emission (445 nm)/Fluorescein emission (520 nm)) of donor emission to acceptor emission after excitation of the donor fluorophore at 400 nm, is used to quantitate reaction progress, as shown in the equation below. A significant benefit of this ratiometric method for quantitating reaction progress is the elimination of well-to-well variations in FRET-peptide concentration and signal intensities. As a result, the assay yields very high Z′-factor values (>0.7) at a low percent phosphorylation. Both cleaved and uncleaved FRET-peptides contribute to the fluorescence signals and therefore to the Emission Ratio. The extent of phosphorylation of the FRET-peptide can be calculated from the Emission Ratio. The Emission Ratio will remain low if the FRET-peptide is phosphorylated (i.e., no kinase inhibition) and will be high if the FRET-peptide is non-phosphorylated (i.e., kinase inhibition).
(§3) The Test Compounds are screened in 1% DMSO (final) in the well. For 10 point titrations, 3-fold serial dilutions are conducted from the starting concentration of the customer's choosing.
(§4) All Peptide/Kinase Mixtures are diluted to a 2× working concentration in the appropriate Kinase Buffer (see section Kinase Specific Assay Conditions for a complete description).
(§5) All ATP Solutions are diluted to a 4× working concentration in Kinase Buffer (50 mM HEPES pH 7.5, 0.01% BRIJ-35, 10 mM MgCl2, 1 mM EGTA). ATP Km apparent is previously determined using a Z″-LYTE assay.
(§6) The Development Reagent is diluted in Development Buffer (see section Kinase-Specific Assay Conditions—Direct and Cascade for a complete description).
(§7) Bar-coded Corning, low volume NBS, black 384-well plate (Corning Cat. #4514) • 1. 100 nL—100× Test Compound in 100% DMSO • 2. 2.4 μL—Kinase buffer • 3. 5 μL—2× Peptide/Kinase Mixture • 4. 2.5 μL—4×ATP Solution • 5. 30—second plate shake • 6. 60—minute Kinase Reaction incubation at room temperature • 7. 5 μL—Development Reagent Solution • 8. 30—second plate shake • 9. 60—minute Development Reaction incubation at room temperature • 10. Read on fluorescence plate reader and analyze the data Z′-LYTE Assay Controls
(§8) SelectScreen Kinase Profiling Service uses XLfit from IDBS. The dose response curve is curve fit to model number 205 (sigmoidal dose-response model).
(§9) The 2×CDK5/p35/Ser/Thr 12 mixture is prepared in 50 mM HEPES pH 7.5, 0.01% BRIJ-35, 10 mM MgCl2, 1 mM EGTA. The final 10 μL Kinase Reaction consists of 0.14-1.3 ng CDK5/p35 and 2 μM Ser/Thr 12 in 50 mM HEPES pH 7.5, 0.01% BRIJ-35, 10 mM MgCl2, 1 mM EGTA. After the 1 hour Kinase Reaction incubation, 5 μL of a 1:4096 dilution of Development Reagent A is added.

FLT4 (VEGFR3) = FLT4 (VEGFR3) (Homo sapiens, UniProt P35916); test: Z'-LYTE SelectScreen biochemical kinase assay FLT4 (VEGFR3)
Excerpt: as §1, §2, §3, §4, §5, §6, §7, §8
The 2×FLT4 (VEGFR3)/Tyr 04 mixture is prepared in 50 mM HEPES pH 7.5, 0.01% BRIJ-35, 10 mM MgCl2, 4 mM MnCl2, 1 mM EGTA, 2 mM DTT. The final 10 μL Kinase Reaction consists of 2-10.5 ng FLT4 (VEGFR3) and 2 μM Tyr 04 in 50 mM HEPES pH 7.5, 0.01% BRIJ-35, 10 mM MgCl2, 2 mM MnCl2, 1 mM EGTA, 1 mM DTT. After the 1 hour Kinase Reaction incubation, 5 μL of a 1:64 dilution of Development Reagent B is added.

ABL1 = ABL1 (Homo sapiens, UniProt P00519); test: Z'-LYTE SelectScreen biochemical kinase assay ABL1
Excerpt: as §1, §2, §3, §4, §5, §6, §7, §8
as §9, with “2×ABL1/Tyr 02” for “2×CDK5/p35/Ser/Thr 12”, “0.29-1.26” for “0.14-1.3”, “ABL1” for “CDK5/p35”, “Tyr 02” for “Ser/Thr 12”, “1:128” for “1:4096”

PTK2 (FAK) = PTK2 (FAK) (Homo sapiens, UniProt Q05397); test: Z'-LYTE SelectScreen biochemical kinase assay PTK2 (FAK)
Excerpt: as §1, §2, §3, §4, §5, §6, §7, §8
The 2×PTK2 (FAK)/Tyr 07 mixture is prepared in 50 mM HEPES pH 7.5, 0.01% BRIJ-35, 10 mM MgCl2, 1 mM EGTA. The final 10 μL Kinase Reaction consists of 12.5-100 ng PTK2 (FAK) and 2 μM Tyr 07 in 50 mM HEPES pH 7.5, 0.01% BRIJ-35, 10 mM MgCl2, 1 mM EGTA. After the 1 hour Kinase Reaction incubation, 5 μL of a 1:16 dilution of Development Reagent B is added.

[1] = 10 μmolar compound concentration, ATP at Km app, read-out: CDK5/p35 inhibition
[2] = read-out: % Inhibition mean CDK5/p35
[3] = 10 μmolar compound concentration, ATP at Km app, read-out: FLT4 (VEGFR3) inhibition
[4] = read-out: % Inhibition mean FLT4 (VEGFR3)
[5] = 10 μmolar compound concentration, ATP at Km app, read-out: ABL1 inhibition
[6] = read-out: % Inhibition mean ABL1
[7] = 10 μmolar compound concentration, ATP at Km app, read-out: PTK2 (FAK) inhibition
[8] = read-out: % Inhibition mean PTK2 (FAK)

Chain of PTK2 (FAK) (Q05397 whole entry): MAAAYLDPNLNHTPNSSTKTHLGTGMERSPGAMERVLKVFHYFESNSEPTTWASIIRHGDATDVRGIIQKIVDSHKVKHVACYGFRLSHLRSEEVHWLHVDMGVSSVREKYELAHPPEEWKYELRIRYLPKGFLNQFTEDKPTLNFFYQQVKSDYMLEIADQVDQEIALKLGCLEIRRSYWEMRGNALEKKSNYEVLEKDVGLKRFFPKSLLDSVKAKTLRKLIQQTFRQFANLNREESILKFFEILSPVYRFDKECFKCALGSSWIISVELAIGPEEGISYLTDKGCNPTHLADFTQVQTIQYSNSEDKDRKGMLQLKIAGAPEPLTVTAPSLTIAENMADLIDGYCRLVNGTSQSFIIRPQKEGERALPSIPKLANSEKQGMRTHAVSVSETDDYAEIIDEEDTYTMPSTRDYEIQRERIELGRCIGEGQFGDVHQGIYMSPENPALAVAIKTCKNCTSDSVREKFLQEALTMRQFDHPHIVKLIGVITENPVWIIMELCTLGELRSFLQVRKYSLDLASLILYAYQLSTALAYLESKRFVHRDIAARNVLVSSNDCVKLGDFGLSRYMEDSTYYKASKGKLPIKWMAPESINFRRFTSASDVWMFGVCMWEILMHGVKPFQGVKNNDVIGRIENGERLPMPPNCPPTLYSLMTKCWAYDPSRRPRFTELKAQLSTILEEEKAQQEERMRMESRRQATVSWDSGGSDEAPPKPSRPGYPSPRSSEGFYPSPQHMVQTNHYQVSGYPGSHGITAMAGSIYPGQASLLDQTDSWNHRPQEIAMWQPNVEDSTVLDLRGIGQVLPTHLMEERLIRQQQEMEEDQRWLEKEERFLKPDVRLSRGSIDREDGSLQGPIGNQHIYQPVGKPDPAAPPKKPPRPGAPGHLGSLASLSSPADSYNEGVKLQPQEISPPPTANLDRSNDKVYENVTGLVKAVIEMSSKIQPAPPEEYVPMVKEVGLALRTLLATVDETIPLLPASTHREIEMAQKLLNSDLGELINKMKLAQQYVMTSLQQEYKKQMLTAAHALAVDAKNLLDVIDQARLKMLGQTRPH
Chain of FLT4 (VEGFR3) (P35916 25-1363): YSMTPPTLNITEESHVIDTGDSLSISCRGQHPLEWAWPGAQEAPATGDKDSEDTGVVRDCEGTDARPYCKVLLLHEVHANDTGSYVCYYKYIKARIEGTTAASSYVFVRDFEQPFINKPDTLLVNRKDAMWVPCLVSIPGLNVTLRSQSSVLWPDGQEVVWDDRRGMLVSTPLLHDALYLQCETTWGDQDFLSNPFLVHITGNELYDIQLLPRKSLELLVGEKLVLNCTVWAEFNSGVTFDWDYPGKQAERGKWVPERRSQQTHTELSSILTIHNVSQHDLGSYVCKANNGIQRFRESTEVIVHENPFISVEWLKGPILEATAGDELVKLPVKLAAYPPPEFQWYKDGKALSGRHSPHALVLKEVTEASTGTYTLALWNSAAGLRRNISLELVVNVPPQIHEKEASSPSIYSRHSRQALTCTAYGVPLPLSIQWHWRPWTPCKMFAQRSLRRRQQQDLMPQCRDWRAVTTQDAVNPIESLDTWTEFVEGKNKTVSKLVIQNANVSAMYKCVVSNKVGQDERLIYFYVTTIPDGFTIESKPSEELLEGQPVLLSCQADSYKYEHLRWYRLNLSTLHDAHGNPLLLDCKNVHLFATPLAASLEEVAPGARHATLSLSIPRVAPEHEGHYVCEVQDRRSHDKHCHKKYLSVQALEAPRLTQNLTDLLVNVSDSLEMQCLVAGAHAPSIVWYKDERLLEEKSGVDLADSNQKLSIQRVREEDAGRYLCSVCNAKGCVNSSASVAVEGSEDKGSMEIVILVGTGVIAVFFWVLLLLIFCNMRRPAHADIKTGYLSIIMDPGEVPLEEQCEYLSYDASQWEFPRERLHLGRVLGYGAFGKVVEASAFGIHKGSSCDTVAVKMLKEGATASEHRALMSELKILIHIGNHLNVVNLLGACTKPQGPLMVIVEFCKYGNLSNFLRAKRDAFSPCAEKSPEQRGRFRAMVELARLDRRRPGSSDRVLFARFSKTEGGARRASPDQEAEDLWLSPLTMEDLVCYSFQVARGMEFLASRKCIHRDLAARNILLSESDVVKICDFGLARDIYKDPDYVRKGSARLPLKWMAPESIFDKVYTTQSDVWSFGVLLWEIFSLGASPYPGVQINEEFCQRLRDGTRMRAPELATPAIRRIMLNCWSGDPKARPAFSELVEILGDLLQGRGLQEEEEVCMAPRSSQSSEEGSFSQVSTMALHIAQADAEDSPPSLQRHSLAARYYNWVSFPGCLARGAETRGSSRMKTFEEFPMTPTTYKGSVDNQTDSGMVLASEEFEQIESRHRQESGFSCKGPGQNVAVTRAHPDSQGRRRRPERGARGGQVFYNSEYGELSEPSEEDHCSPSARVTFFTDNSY
Chain of ABL1 (P00519 whole entry): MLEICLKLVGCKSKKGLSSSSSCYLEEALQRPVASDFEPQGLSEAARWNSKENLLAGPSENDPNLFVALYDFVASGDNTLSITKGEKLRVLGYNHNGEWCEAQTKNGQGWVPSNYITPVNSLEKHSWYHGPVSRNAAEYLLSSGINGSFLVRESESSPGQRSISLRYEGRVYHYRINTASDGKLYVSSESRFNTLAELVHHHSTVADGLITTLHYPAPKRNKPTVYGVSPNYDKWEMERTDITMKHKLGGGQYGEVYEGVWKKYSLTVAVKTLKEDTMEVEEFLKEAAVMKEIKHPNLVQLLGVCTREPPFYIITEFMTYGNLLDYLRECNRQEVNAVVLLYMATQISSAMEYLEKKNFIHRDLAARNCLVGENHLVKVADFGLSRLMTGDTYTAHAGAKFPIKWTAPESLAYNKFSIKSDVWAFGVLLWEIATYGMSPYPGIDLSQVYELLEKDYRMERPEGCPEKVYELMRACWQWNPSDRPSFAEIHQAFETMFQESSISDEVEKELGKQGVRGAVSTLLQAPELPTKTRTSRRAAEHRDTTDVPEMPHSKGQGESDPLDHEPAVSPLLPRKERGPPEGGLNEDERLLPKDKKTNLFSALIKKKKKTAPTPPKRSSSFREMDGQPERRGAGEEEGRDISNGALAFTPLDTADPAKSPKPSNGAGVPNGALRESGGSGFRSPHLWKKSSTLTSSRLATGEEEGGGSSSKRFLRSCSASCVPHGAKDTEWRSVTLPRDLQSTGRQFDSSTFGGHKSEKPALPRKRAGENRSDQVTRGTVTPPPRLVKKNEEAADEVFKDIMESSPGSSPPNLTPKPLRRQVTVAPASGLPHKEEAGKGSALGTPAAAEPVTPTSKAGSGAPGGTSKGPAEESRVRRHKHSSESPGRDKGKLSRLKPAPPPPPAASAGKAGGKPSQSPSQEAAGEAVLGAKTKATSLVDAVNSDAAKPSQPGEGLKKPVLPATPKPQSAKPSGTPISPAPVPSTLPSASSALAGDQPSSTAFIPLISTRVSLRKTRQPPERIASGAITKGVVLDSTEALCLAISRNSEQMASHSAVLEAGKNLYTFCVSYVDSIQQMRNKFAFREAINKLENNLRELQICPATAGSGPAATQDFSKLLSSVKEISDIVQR
Chain of CDK5/p35 (Q00535 whole entry): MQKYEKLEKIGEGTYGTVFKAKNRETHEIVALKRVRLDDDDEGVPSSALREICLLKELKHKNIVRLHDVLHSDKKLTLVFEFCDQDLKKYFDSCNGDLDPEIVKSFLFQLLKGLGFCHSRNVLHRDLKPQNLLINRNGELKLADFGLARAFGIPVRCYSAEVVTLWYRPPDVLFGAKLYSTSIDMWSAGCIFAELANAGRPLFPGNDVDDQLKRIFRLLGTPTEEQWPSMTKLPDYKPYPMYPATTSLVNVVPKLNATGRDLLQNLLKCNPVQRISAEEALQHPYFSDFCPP
Chain of CDK5/p35 (Q15078 whole entry partner): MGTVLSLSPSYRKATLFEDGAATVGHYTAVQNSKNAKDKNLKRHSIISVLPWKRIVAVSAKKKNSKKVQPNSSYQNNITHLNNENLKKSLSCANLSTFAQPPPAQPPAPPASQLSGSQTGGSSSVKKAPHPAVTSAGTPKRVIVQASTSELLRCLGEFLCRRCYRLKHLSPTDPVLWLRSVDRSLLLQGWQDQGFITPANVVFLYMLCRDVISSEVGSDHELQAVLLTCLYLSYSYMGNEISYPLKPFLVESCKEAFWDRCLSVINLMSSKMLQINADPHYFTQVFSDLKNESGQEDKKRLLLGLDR

Structure (SMILES) | inhibition at 10 µM (CDK5/p35; [1]) | inhibition at 10 µM (CDK5/p35; [2]) | inhibition at 10 µM (FLT4 (VEGFR3); [3]) | inhibition at 10 µM (FLT4 (VEGFR3); [4]) | inhibition at 10 µM (ABL1; [5]) | inhibition at 10 µM (ABL1; [6]) | inhibition at 10 µM (PTK2 (FAK); [7]) | inhibition at 10 µM (PTK2 (FAK); [8]) | inhibition at 10 µM (CDK5/p35; read-out: % Inhibition mean) | inhibition at 10 µM (FLT4 (VEGFR3); read-out: % Inhibition mean) | inhibition at 10 µM (ABL1; read-out: % Inhibition mean) | inhibition at 10 µM (PTK2 (FAK); read-out: % Inhibition mean)
Cc1cc(F)ccc1-c1cccn2nc(NC3CCc4c(cnn4C(C)C)C3)nc12 (stereo not shown) [Example 44, [8-(4-fluoro-2-methyl-phenyl)-[1,2,4]triazolo[1,5-a]pyridine-2-yl]-(1-isopropyl-4,5,6,7-tetrahydro-1H-indazol-5-yl)-amine] | < 40% | 25% | 40 to 80% | 43% | < 40% | 13% | < 40% | 15% |  |  |  | 
CC1(C)NC(=O)c2ccc(Nc3nc4c(-c5cccc(F)c5)cccn4n3)cc21 [Cpd. 302 in WO09155551, reference compound] | > 80% |  | > 80% |  | > 80% |  | > 80% |  | 88% | 96% | 104% | 86%
CCn1nnc2c1CCC(Nc1nc3c(-c4ccc(F)cc4C)cccn3n1)C2 (stereo not shown) [Example 51, (1-Ethyl-4,5,6,7-tetrahydro-1H-benzotriazol-5-yl)-[8-(4-fluoro-2-methyl-phenyl)-[1,2,4]triazolo[1,5-a]pyridine-2-yl]-amine] | < 40% | 23% | < 40% | 15% | < 40% | 6% | < 40% | 27% |  |  |  | 
CCn1ncc2c1CCC(Nc1nc3c(-c4cncc(Cl)c4)cccn3n1)C2 (stereo not shown) [Example 73, [8-(5-Chloro-pyridin-3-yl)-[1,2,4]triazolo[1,5-a]pyridine-2-yl]-(1-ethyl-4,5,6,7-tetrahydro-1H-indazol-5-yl)-amine] | 40 to 80% | 56% | 40 to 80% | 50% | < 40% | 21% | < 40% | 25% |  |  |  | 
CCn1ncc2c1CC[C@H](Nc1nc3c(-c4ccc(F)c(Cl)c4)cccn3n1)C2 [Example S-61, (S)-[8-(3-Chloro-4-fluoro-phenyl)-[1,2,4]triazolo[1,5-a]pyridine-2-yl]-(1-ethyl-4,5,6,7-tetrahydro-1H-indazol-5-yl)-amine] | < 40% | 10% | < 40% | 24% | < 40% | 13% | < 40% | 23% |  |  |  | 
CCn1nc(Cl)c2c1CCC(Nc1nc3c(-c4ccc(F)cc4C)cccn3n1)C2 (stereo not shown) [Example 48, (3-Chloro-1-ethyl-4,5,6,7-tetrahydro-1H-indazol-5-yl)-[8-(4-fluoro-2-methyl-phenyl)-[1,2,4]triazolo[1,5-a]pyridine-2-yl]-amine] | < 40% | 38% | < 40% | 19% | < 40% | 13% | < 40% | 24% |  |  |  | 
CCn1ncc2c1CCC(Nc1nc3c(-c4cccnc4OC)cccn3n1)C2 (stereo not shown) [Example 69, (1-Ethyl-4,5,6,7-tetrahydro-1H-indazol-5-yl)-[8-(2-methoxy-pyridin-3-yl)-[1,2,4]triazolo[1,5-a]pyridine-2-yl]-amine] | < 40% | 28% | < 40% | 16% | < 40% | 13% | < 40% | 24% |  |  |  | 
CC1(C)C(=O)Nc2ccc(Nc3nc4c(-c5cccc(F)c5)cccn4n3)cc21 [Cpd. 263 in WO09155551, reference compound] | > 80% |  | > 80% |  | > 80% |  | > 80% |  | 83% | 103% | 99% | 101%
Cc1cc(F)ccc1-c1cccn2nc(NC3CCc4c(cnn4C)C3)nc12 (stereo not shown) [Example 10, [8-(4-fluoro-2-methyl-phenyl)-[1,2,4]triazolo[1,5-a]pyridine-2-yl]-(1-methyl-4,5,6,7-tetrahydro-1H-indazol-5-yl)-amine] | 40 to 80% | 44% | < 40% | 22% | < 40% | 1% | < 40% | 13% |  |  |  | 
CCCCn1ncc2c1CCC(Nc1nc3c(-c4ccc(F)cc4C)cccn3n1)C2 (stereo not shown) [Example 46, [8-(4-fluoro-2-methyl-phenyl)-[1,2,4]triazolo[1,5-a]pyridine-2-yl]-(1-butyl-4,5,6,7-tetrahydro-1H-indazol-5-yl)-amine] | < 40% | 34% | < 40% | 29% | < 40% | 10% | < 40% | 24% |  |  |  | 
CCn1ncc2c1CCC(Nc1nc3c(-c4cnccc4OC)cccn3n1)C2 (stereo not shown) [Example 68, (1-Ethyl-4,5,6,7-tetrahydro-1H-indazol-5-yl)-[8-(4-methoxy-pyridin-3-yl)-[1,2,4]triazolo[1,5-a]pyridine-2-yl]-amine] | 40 to 80% | 44% | 40 to 80% | 52% | < 40% | 28% | < 40% | 28% |  |  |  | 

From US11339161B2, “Triazolo pyridines as modulators of gamma-secretase” (Boehringer Ingelheim International GmbH, priority 2017, dated 2022)
